Data published in ChEMBL document CHEMBL6178018, “Design of an Oral STING Agonist through Intramolecular Hydrogen Bond Ring Mimicking to Achieve Complete Tumor Regression” (J Med Chem, 2025).
Calls of active or inactive are those of the source. The calls are words filed in the database; no cut-off is given here.

What was measured:
[1] = target: T1, Stimulator of interferon genes protein (Homo sapiens, UniProt Q86WV6); test: Agonist activity at human STING HAQ variant in human THP1-Blue ISG cells assessed as fold change in stimulation activity measured after 24 hrs incubation by QUANTI-Blue based microplate reader; format: cell-based
Target sequence in this assay (Q86WV6 whole entry, looked up, change not shown): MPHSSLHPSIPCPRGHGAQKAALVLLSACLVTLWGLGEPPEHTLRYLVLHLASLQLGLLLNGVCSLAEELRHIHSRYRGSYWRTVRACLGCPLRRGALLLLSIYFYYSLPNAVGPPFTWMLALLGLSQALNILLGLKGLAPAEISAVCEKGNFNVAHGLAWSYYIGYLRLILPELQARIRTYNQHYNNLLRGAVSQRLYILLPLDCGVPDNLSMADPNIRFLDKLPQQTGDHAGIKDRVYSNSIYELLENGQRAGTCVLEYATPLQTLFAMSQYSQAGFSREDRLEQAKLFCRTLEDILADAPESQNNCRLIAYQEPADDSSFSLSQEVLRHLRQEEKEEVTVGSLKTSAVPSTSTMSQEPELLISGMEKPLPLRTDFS

[2] = target: T1, Stimulator of interferon genes protein; test: Binding affinity to wild type His-tagged STING (unknown origin) measured after 3 hrs incubation by HTRF assay
Target sequence in this assay (Q86WV6 whole entry): as the sequence (Q86WV6 whole entry, looked up, change not shown) above

[3] = target: T2, Stimulator of interferon genes protein (Mus musculus, UniProt Q3TBT3); test: Agonist activity at mouse STING expressed in human THP1-Dual cells assessed as fold change in stimulation activity measured after 24 hrs incubation by QUANTI-Luc4 based microplate reader; format: cell-based
T2 sequence (Q3TBT3 whole entry): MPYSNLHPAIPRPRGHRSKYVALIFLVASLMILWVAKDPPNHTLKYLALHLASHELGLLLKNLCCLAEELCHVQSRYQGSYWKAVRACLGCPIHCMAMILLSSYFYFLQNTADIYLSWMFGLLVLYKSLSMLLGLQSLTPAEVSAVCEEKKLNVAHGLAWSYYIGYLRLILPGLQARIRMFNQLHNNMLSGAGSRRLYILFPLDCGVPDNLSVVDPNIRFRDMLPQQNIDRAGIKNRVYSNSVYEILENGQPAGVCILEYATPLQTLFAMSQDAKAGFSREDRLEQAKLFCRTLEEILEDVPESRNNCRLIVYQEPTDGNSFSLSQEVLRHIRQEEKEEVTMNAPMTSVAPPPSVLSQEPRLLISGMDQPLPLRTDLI

[4] = target: T1, Stimulator of interferon genes protein; test: Agonist activity at STING R232 mutant (unknown origin) expressed in human THP1-Dual cells assessed as fold change in stimulation activity measured after 24 hrs incubation by QUANTI-Luc4 based microplate reader; format: cell-based
Target sequence in this assay (Q86WV6 whole entry, looked up, change not shown): as the sequence (Q86WV6 whole entry, looked up, change not shown) above

THP-1 [5] = test: Induction of interferon secretion in human THP-1 cells assessed as IFN-beta level at 13 uM measured after 24 hrs by ELISA; format: functional, cell-based
THP-1 [6] = test: Induction of interferon response in STING knock out human THP-1 cells assessed as fold change in stimulation activity at 13 to 25 uM measured after 24 hrs incubation by QUANTI-Luc4 based microplate reader; format: functional, cell-based; details: dose 13-25 µM
THP1-Blue ISG = test: Induction of STING phosphorylation in human THP1-Blue ISG cells at 13 to 50 uM measured after 3 hrs by Western blot analysis; format: cell-based; details: filed as agonist, dose 13-50 µM
[7] = target: T3, Interferon regulatory factor 3 (Homo sapiens) (UniProt Q14653); test: Induction of IRF3 phosphorylation in human THP1-Blue ISG cells at 13 to 50 uM measured after 3 hrs by Western blot analysis; format: cell-based; details: filed as agonist, dose 13-50 µM
T3 sequence (whole entry): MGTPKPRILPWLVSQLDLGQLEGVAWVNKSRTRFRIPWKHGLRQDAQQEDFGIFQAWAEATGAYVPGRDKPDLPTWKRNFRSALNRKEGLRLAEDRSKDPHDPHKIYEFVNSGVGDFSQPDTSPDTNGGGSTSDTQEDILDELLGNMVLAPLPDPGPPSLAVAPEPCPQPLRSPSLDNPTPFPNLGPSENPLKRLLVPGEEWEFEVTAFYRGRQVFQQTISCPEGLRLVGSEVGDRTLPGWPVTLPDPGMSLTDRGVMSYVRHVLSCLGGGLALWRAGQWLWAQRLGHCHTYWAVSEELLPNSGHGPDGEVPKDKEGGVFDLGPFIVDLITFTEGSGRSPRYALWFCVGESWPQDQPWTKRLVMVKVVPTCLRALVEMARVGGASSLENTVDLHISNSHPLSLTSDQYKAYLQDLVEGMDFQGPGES

[8] = Oral bioavailability in mouse at 10 mg/kg by LC-MS/MS analysis; format: ADME, organism-based; details: in vivo
[9] = AUC in mouse at 5 mg/kg, iv by LC-MS/MS analysis; format: ADME, organism-based; details: in vivo
[10] = Cmax in mouse at 5 mg/kg, iv by LC-MS/MS analysis; format: ADME, organism-based; details: in vivo
[11] = Clearance in mouse at 10 mg/kg, po by LC-MS/MS analysis; format: ADME, organism-based; details: in vivo
MC-38 [12] = test: In vivo antitumor activity against mouse MC-38 cells inoculated in C57BL/6 mouse assessed as as increase in moue survival time at 60 mg/kg, po Q3D measured for 15 to 20 days; format: functional, organism-based; details: time 15-20 day
[13] = AUC in mouse at 10 mg/kg, po by LC-MS/MS analysis; format: ADME, organism-based; details: in vivo
[14] = Clearance in mouse at 5 mg/kg, iv by LC-MS/MS analysis; format: ADME, organism-based; details: in vivo
MC-38 [15] = test: In vivo antitumor activity against mouse MC-38 cells inoculated in C57BL/6 mouse assessed as complete tumor regression (CR) at 60 mg/kg, po Q3D measured for 15 to 20 days; format: functional, organism-based; details: time 15-20 day
[16] = Half life in mouse at 5 mg/kg, iv by LC-MS/MS analysis; format: ADME, organism-based; details: in vivo
[17] = Half life in mouse at 10 mg/kg, po by LC-MS/MS analysis; format: ADME, organism-based; details: in vivo
[18] = Cmax in mouse at 10 mg/kg, po by LC-MS/MS analysis; format: ADME, organism-based; details: in vivo
[19] = Stability of the compound in mouse plasma assessed as half life by LC-MS/MS analysis; format: ADME, cell-free
[20] = Metabolic stability in human liver microsomes assessed as half life at 10 uM measured up to 60 mins by LC-MS/MS analysis; format: ADME, Microsome
MC-38 [21] = test: In vivo antitumor activity against mouse MC-38 cells inoculated in C57BL/6 mouse assessed as complete tumor regression (CR) at 60 mg/kg, po Q3D co-administered with anti-PD1 measured for 15 to 20 days; format: functional; details: time 15-20 day
[22] = Chemical stability of the compound in MeOH/H2O solvent assessed as half life by LC-MS/MS analysis; format: physicochemical
[23] = Stability of the compound in human plasma assessed as half life by LC-MS/MS analysis; format: ADME, cell-free
[24] = Chemical stability of the compound in MeOH/H2O assessed as half life by LC-MS/MS analysis; format: physicochemical
[25] = Metabolic stability in mouse liver microsomes assessed as half life at 10 uM measured up to 60 mins by LC-MS/MS analysis; format: ADME, Microsome
[26] = target: T1, Stimulator of interferon genes protein; test: Agonist activity at human STING in human THP1-Blue ISG cells measured after 24 hrs incubation by QUANTI-Blue based microplate reader; format: cell-based
Target sequence in this assay (Q86WV6 whole entry): as the sequence (Q86WV6 whole entry, looked up, change not shown) above

EC50 [1]	IC50 [2]	EC50 [3]	EC50 [4]	SMILES	also measured
> 100 µM				COc1cc2sc(C(=O)NCCc3nnn[nH]3)c(F)c2cc1OC	
> 100 µM				COc1cc2sc(C(=O)NCC3(C(=O)O)CC3)c(F)c2cc1OC	
> 100 µM				COc1cc2sc(C(=O)NCCC(=O)O)c(I)c2cc1OC	
> 100 µM				COc1cc2sc(C(=O)NCC(F)(F)C(=O)O)c(F)c2cc1OC	
> 100 µM				COc1ccc2c(F)c(C(=O)NCCC(=O)O)sc2c1	
3.7 µM	31.2 µM	22 µM	18.4 µM	COc1cc2sc(C(=O)NCC3(C(=O)O)CCC3)c(F)c2cc1OC	
5.1 µM	24.1 µM	11.9 µM	12 µM	CC[C@H](CNC(=O)c1sc2cc(OC)c(OC)cc2c1F)C(=O)O	Activity (THP-1 [5]): Active; Activity (THP-1 [6]): inactive; Activity (THP1-Blue ISG): Active; Activity [7]: Active
> 100 µM				COc1cc2sc(C(=O)NCC(C)(C)C(=O)O)c(F)c2cc1OC	
4.4 µM	22.5 µM	8.1 µM	8.8 µM	COc1cc2cc(C(=O)CCC(=O)O)sc2cc1OC	bioavailability [8]: 52%; AUC [9]: 7260 ng·h/mL; Cmax [10]: 25100 ng/mL; CL/F [11]: 22 mL/min/kg; Activity (MC-38 [12]): inactive; AUC [13]: 7570 ng·h/mL; clearance [14]: 11.5 mL/min/kg; Activity (MC-38 [15]): inactive; half-life [16]: 0.3 h; half-life [17]: 1.5 h; Cmax [18]: 13400 ng/mL
> 100 µM				COc1cc2sc(C(=O)NCCS(N)(=O)=O)c(F)c2cc1OC	
4.5 µM	22.1 µM	25.3 µM	19.6 µM	COc1cc2sc3c(c2cc1OC)C(=O)N(CCC(=O)O)C3=O	half-life [19]: > 1 h; half-life at 10 µM [20]: > 1 h; Activity (MC-38 [21]): 60%; half-life [22]: 0.35 h; Activity (MC-38 [12]): inactive; half-life [23]: 0.5 h; Activity (MC-38 [15]): inactive; half-life [24]: 21 h; half-life at 10 µM [25]: > 1 h
> 100 µM				CONC(=O)C(F)(F)CNC(=O)c1sc2cc(OC)c(Br)cc2c1F	
> 100 µM				COc1cc2sc(C(=O)NCCC(=O)NS(C)(=O)=O)c(F)c2cc1OC	
> 100 µM				COc1cc2sc(C(=O)NCC(=O)O)c(F)c2cc1OC	
13.2 µM	> 100 µM	> 100 µM	> 100 µM	CCC(CNC(=O)c1sc2cc(Br)c(OC)cc2c1F)C(=O)O (stereo not drawn)	
> 100 µM				COc1cc2sc(C(=O)NCCC(=O)O)c(F)c2cc1F	
> 100 µM				COc1cc2sc(C(=O)N[C@@H](C)CC(=O)O)c(F)c2cc1OC	
	> 100 µM			COc1cc2cc(C(=O)NCCC(=O)O)sc2cc1OC	EC50 [26]: > 100 µM
3.5 µM	75.2 µM	92.7 µM	85.9 µM	CCC(CNC(=O)c1sc2c(F)c(OC)c(OC)cc2c1F)C(=O)O (stereo not drawn)	
> 100 µM				COc1cc2sc(C(=O)NCCC(O)(C(F)(F)F)C(F)(F)F)c(F)c2cc1OC	
> 100 µM				COc1cc2sc(C(=O)NCCC(N)=O)c(F)c2cc1OC	
> 100 µM				COc1cc2sc(C(=O)NC(C)(C)CC(=O)O)c(F)c2cc1OC	

SMILES	EC50 [1]	IC50 [2]	EC50 [3]	EC50 [4]	also measured
COc1cc2[se]c(C(=O)NCC(C)C(=O)O)c(F)c2cc1OC (stereo not drawn)	5.7 µM		27 µM	26.1 µM	
